Read-outs that look alike come from different tables or passages of the source.
What was measured:
recombinant human MAO-B = target: T1, recombinant human MAO-B (Homo sapiens, UniProt P27338); assay: MAO-B inhibition, MAO-Glo commercial kit; format: biochemical; settings: Ki converted from IC50 by Cheng-Prusoff; duplicate, mean ± SD; read-out: Ki hMAO-B
T1 construct: purchased Sigma-Aldrich Corporation
T1 sequence (P27338 1-520): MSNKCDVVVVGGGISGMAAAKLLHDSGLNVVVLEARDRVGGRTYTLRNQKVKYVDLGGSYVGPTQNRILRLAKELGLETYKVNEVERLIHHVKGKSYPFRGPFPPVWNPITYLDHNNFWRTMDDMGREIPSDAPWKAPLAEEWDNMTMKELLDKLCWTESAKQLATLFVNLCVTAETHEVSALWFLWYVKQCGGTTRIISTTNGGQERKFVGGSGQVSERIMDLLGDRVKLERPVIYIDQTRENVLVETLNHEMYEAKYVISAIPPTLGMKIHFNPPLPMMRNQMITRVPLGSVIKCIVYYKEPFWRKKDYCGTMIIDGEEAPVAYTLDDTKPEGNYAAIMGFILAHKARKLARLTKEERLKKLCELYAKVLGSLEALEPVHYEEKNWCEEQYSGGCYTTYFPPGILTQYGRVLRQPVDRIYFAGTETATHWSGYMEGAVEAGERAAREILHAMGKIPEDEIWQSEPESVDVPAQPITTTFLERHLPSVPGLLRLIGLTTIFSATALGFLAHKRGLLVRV
Procedure: Inhibitory potency on MAO-B enzyme from recombinant human MAO-B were carried out by a fluorometric method with a commercial kit (Promega, MAO-Glo Assay). The MAO enzyme incubation experiments were carried with a MAO-B substrate, methyl (S)-2-(6-(2-aminoethoxy) benzo[d]thiazol-2-yl)-4,5-dihydrothiazole-4-carboxylate, which was converted to luciferin methyl ester. Then the “Luciferin Detection Reagent” was added to change the methyl ester derivative to luciferin, stop the MAO-B reaction, and simultaneously produce light. The intensity of light is directly in proportion to MAO-B activity. The assay was carried in a 96-well black opaque microplate in duplicate. The reaction mixture was composed of 12.5 μL of MAO-B substrate (a final concentration of 4 μM), 25 μL of human MAO-B (1 μg of protein/well), and 12.5 μL of test compounds for each well. After 1 h of incubation at 37 °C, each well added 50 μL of “Luciferin Detection Reagent”, and incubated an additional 20 min. the luminescent signal of microplate was measured by a luminometer. The signal from reaction of MAO-B enzyme and substrate without inhibitors accounted as the positive control, whereas the signal from reaction of MAO-B enzyme and inhibitors in the absence of substrate accounted as the negative control. Compound concentrations of 1 μM were tested at first. IC50 values (the half maximal inhibitory concentration) were performed from concentration–response curves, plotted by the GraphPad Prism software. All experiments were performed in duplicate, and data are expressed as mean ± SD.

human A2AR = target: T2, human A2AR (Homo sapiens, UniProt P29274); assay: Radioligand binding assay ([3H]ZM241385 competition) on membranes of HEK-293 cells transfected with human A2AR; settings: [3H]ZM241385 displacement; Ki converted from IC50 by Cheng-Prusoff; duplicate, mean ± SD; read-out: Ki hA2AR
T2 construct: expressed in transfected cells
Procedure: The binding affinity of test compounds was determined using radioligand binding assays. Human A2AR cDNA was stably transfected into HEK-293 cells. Membranes from the transfected cell were used in the interactive capacity of each compound toward the A2AR. Competition binding assay experiments by incubating membranes of 10 μg protein with 2 nM [3H]ZM241385 were carried out, with interval concentrations ranging from 0.1 nM to 100 μM of test compounds in 96-well filter plates at 4 °C for 90 min. After incubation experiments, free and bound radioligands were split by filtering and washing. Last, filter-bound radioactivity was counted after addition of 30 μL/well of scintillation solution. Nonspecific binding was measured in the presence of 100 μM ZM241385. The experiments were carried in duplicate. IC50 values were determined using a nonlinear regression curve fitting by the program GraphPad Prism. The affinities of compounds were calculated by Ki value which was from the IC50 values according as the Cheng−Prusoff equation [19].

[1] = system: haloperidol-induced catalepsy in rats; assay: Haloperidol-induced catalepsy, bar test; format: in vivo; settings: i.p.
Procedure: Catalepsy was measured using a thin metal bar test at 9.0 cm height. In this test, each rat was injected intraperitoneally by haloperidol (1.5 mg/kg). Before i.p. administration of vehicle (2% Tween 80–saline), PX-D-P6 and PX-E-P8 (5, 15, 50 mg/kg), at time 0 min, we tested all rats for successful induction of catalepsy. The length of time (descent latency) it persisted in hanging onto the metal bar was measured for a period of up to 300 s (maximum score). After this period, the rat was gently removed from the bar. The high bar test was performed 20 min after the injection of compound. Descent latencies have been presented as median and interquartile ranges. Differences between medians were analyzed by Kruskal-Wallis test, followed by Bonferroni's test.

[2] = Plasma pharmacokinetics after i.p. administration; format: in vivo, Sprague-Dawley rats; settings: 50 mg/kg, rats
Excerpt: (§1) Sprague-Dawley rats (200 ± 20 g) were obtained from the Laboratory Animal Center of Wenzhou Medical University (Wenzhou, China) to study the pharmacokinetics and tissue distribution studies (TDS) of PX-D-P6 and PX-E-P8 following intraperitoneal injection (i.p.) administration. The experiment procedures and protocols were approved the Animal Care and Use Committee of Wenzhou Medical College and complied with the Guide for the Care and Use of Laboratory Animals. The corresponding ethical approval code was WMU20161025.
(§2) The chosen compounds dissolved in suspension formulation (2 % Tween 80–saline) were administered to each rat at a dose of 50 mg/kg. Blood samples (0.3 mL) were collected from the caudal vein into 1.5 mL tapered plastic centrifuge tubes (pretreated with K2EDTA as an anticoagulant) at pre-dose, 0.08, 0.16, 0.25, 0.5, 1, 2, 4, 8, 12, 24 h after i.p. administration. Separately, blood and brain samples were collected at pre-dose and 1 h for TDS. Blood samples were immediately centrifuged at 3000 g for 10 min for isolation of the plasma. Brain samples were homogenized in phosphate buffer saline. 100 μL plasma or 200 μL brain sample was precipitated with addition of 400 μL acetonitrile and vortex mixed for 1 min and centrifuged at 10,000 g for 10 min. Finally, 2μL supernatant was injected into UPLC/MS system. Calibration standards samples were prepared with blank rat plasma or brain homogenates. Plasma pharmacokinetic parameters were analyzed by DAS (Drug and Statistics) software (Version 2, Wenzhou Medical University, Wenzhou, China).

[3] = Plasma and brain distribution at 1 h after i.p. administration; format: in vivo; settings: Sprague-Dawley, rat, ip, rats, 1 h after i.p. 50 mg/kg; for concentration at 1 h: n = 6
Excerpt: as §1, §2

[4] = Sprague-Dawley, rat, plasma, ip, n = 6

T2 sequence (P29274 whole entry): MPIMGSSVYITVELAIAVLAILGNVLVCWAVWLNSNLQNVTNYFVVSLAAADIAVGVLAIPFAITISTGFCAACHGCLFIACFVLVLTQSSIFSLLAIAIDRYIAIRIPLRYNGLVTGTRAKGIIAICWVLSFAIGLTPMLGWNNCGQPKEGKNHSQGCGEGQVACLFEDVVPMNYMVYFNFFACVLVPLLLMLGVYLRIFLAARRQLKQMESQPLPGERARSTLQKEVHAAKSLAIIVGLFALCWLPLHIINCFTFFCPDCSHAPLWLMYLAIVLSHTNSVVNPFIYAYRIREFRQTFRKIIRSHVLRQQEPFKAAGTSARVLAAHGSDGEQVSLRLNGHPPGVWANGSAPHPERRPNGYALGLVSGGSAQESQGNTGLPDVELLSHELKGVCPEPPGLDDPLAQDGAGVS

Compound	melting point [°C]	Ki (recombinant human MAO-B) [nM]	Ki (human A2AR) [nM]	further results
Cn1c(=O)c2[nH]c(-c3ccc(NC(=O)/C=C/c4cccc(Cl)c4)cc3)nc2n(C)c1=O [PX-E-P4, (E)-3-(3-Chlorophenyl)-N-(4-(1,3-dimethyl-2,6-dioxo-2,3,6,7-tetrahydro-1H-purin-8-yl)phenyl)acrylamide]	> 300	1750 ± 150	6430 ± 980	
COc1ccc(C(=O)Nc2ccc(-c3nc4c([nH]3)c(=O)n(C)c(=O)n4C)cc2)cc1OC [PX-D-P5, N-(4-(1,3-Dimethyl-2,6-dioxo-2,3,6,7-tetrahydro-1H-purin-8-yl)phenyl)-3,4-dimethoxybenzamide]	> 300	1920 ± 250	4270 ± 510	
Cn1c(=O)c2c(nc(-c3cccc(NC(=O)c4cccc(Cl)c4)c3)n2C)n(C)c1=O [PX-D-M9, 3-Chloro-N-(3-(1,3,7-trimethyl-2,6-dioxo-2,3,6,7-tetrahydro-1H-purin-8-yl)phenyl)benzamide]	> 300	760 ± 110	2440 ± 210	
Cn1c(=O)c2c(nc(-c3ccc(NC(=O)/C=C/c4cccc(Cl)c4)cc3)n2C)n(C)c1=O [PX-E-P8, (E)-3-(3-Chlorophenyl)-N-(4-(1,3,7-trimethyl-2,6-dioxo-2,3,6,7-tetrahydro-1H-purin-8-yl)phenyl)acrylamide]	> 300	630 ± 110	850 ± 110	Anti-catalepsy ability ([1]; 50 mg/kg (high dose)): significant anti-catalepsy ability; Effect on haloperidol-induced catalepsy ([1]; different doses (5, 15 and 50 mg/kg), haloperidol 1.5 mg/kg): significant reduction in catalepsy; Anti-catalepsy effect ([1]; low dose): slight effects; Tmax ([2]; Sprague-Dawley, rat, plasma, ip, n = 6, read-out: Tmax): 28.8 min; AUC(0-t) [2, 4]: 15600 ± 1540 ng·h/mL; Cmax [2, 4]: 1640 ± 436 ng/mL; half-life [2, 4]: 196 ± 23.4 min; CL ([2]; n = 6): 171.3 ± 36.5 mL/min/kg; Tmax ([2]; n = 6): 27 ± 12.6 min; Kp at 1 h ([3]; brain and plasma, read-out: B/P Ratio (brain/plasma ratio)): 0.97; concentration at 1 h ([3]; brain, read-out: Brain concentration): 887 ± 113 ng/g; concentration at 1 h ([3]; plasma, read-out: Plasma concentration): 915 ± 231 ng/mL
Cn1c(=O)c2[nH]c(-c3ccc(NC(=O)c4cccc(Cl)c4)cc3)nc2n(C)c1=O [PX-D-P4, 3-Chloro-N-(4-(1,3-dimethyl-2,6-dioxo-2,3,6,7-tetrahydro-1H-purin-8-yl)phenyl)benzamide]	> 300	250 ± 50	1520 ± 160	
Cn1c(=O)c2c(nc(-c3ccc(NC(=O)c4cccc(Cl)c4)cc3)n2C)n(C)c1=O [PX-D-P9, 3-Chloro-N-(4-(1,3,7-trimethyl-2,6-dioxo-2,3,6,7-tetrahydro-1H-purin-8-yl)phenyl)benzamide]	> 300	1510 ± 190	270 ± 80	
Cn1c(=O)c2[nH]c(-c3cccc(NC(=O)c4cccc(Cl)c4)c3)nc2n(C)c1=O [PX-D-M 4, 3-Chloro-N-(3-(1,3-dimethyl-2,6-dioxo-2,3,6,7-tetrahydro-1H-purin-8-yl)phenyl)benzamide]	> 300	1270 ± 180	3610 ± 410	
COc1ccc(C(=O)Nc2cccc(-c3nc4c([nH]3)c(=O)n(C)c(=O)n4C)c2)cc1OC [PX-D-M5, N-(3-(1,3-Dimethyl-2,6-dioxo-2,3,6,7-tetrahydro-1H-purin-8-yl)phenyl)-3,4-dimethoxybenzamide]	> 300	2360 ± 310	4990 ± 750	

Now from value to compound, other results behind:

melting point [°C]	Ki (recombinant human MAO-B) [nM]	Ki (human A2AR) [nM]	Compound	further results
> 300			COc1ccc(/C=C/C(=O)Nc2cccc(-c3nc4c([nH]3)c(=O)n(C)c(=O)n4C)c2)cc1OC [PX-E-M5]	
	> 10000		CCn1c(=O)c2c(nc(/C=C/c3ccc(OC)c(OC)c3)n2C)n(CC)c1=O [Istradefylline, reference compound]	
> 300	2540 ± 310	3590 ± 360	COc1ccc(C(=O)Nc2cccc(-c3nc4c(c(=O)n(C)c(=O)n4C)n3C)c2)cc1OC [PX-D-M10, 3,4-Dimethoxy-N-(3-(1,3,7-trimethyl-2,6-dioxo-2,3,6,7-tetrahydro-1H-purin-8-yl)phenyl)benzamide]	
> 300	2970 ± 370	1340 ± 160	COc1ccc(C(=O)Nc2ccc(-c3nc4c(c(=O)n(C)c(=O)n4C)n3C)cc2)cc1OC [PX-D-P10, 3,4-Dimethoxy-N-(4-(1,3,7-trimethyl-2,6-dioxo-2,3,6,7-tetrahydro-1H-purin-8-yl)phenyl)benzamide]	
> 300			COc1ccc(/C=C/C(=O)Nc2cccc(-c3nc4c(c(=O)n(C)c(=O)n4C)n3C)c2)cc1OC [PX-E-M10]	

Reference: publication PMC6152622, “Synthesis and Evaluation of Phenylxanthine Derivatives as Potential Dual A2AR Antagonists/MAO-B Inhibitors for Parkinson’s Disease” (Molecules : A Journal of Synthetic Chemistry and Natural …, 2017)
